From patent publication US8865698B2, “Method of treatment using substituted pyrazolo[1,5-a]pyrimidine compounds” (Array BioPharma Inc., priority 2008, dated 2014)

Each compound was assayed against histidine-tagged recombinant human TrkA, cytoplasmic domain (Homo sapiens (Human), UniProt P04629) (assay: TrkA ELISA Assay). Conditions: 2.5 nM TrkA, 500 μM ATP, 25 minutes; read-out: TrkA Elisa Enzyme IC50.
Type: biochemical
Method in brief: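 2.5 nM enzyme with 500 μM ATP on poly(Glu,Ala,Tyr 6:3:1)-coated plates, 25 min at ambient temperature in 25 mM MOPS pH 7.5, 5 mM MgCl2, 0.005% Triton X-100. Phosphotyrosine detected by HRP-PY20 antibody, TMB, A450; IC50 from 4- or 5-parameter logistic fit.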

Chain of histidine-tagged recombinant human TrkA, cytoplasmic domain (P04629 440-796): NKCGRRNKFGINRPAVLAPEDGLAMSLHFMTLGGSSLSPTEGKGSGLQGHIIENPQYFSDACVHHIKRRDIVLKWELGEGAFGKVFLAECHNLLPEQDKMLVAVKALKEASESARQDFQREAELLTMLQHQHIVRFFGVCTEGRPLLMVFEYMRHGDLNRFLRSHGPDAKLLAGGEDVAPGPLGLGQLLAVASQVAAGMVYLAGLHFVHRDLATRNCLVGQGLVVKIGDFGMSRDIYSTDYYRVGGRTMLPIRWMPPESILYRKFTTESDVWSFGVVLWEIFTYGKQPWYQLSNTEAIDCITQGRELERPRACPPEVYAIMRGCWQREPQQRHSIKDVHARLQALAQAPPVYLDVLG

Compound	IC50
O=C(Nc1cnn2ccc(N3CCC[C@@H]3c3cc(F)ccc3C(F)F)nc12)N1CCC[C@@H](O)C1 [Example 39, (R)—N-(5-((R)-2-(2-(difluoromethyl)-5-fluorophenyl)pyrrolidin-1-yl)pyrazolo[1,5-a]pyrimidin-3-yl)-3-hydroxypiperidine-1-carboxamide]	25.7 nM
O=C(Nc1cnn2ccc(N3CCC[C@@H]3c3cc(F)ccc3F)nc12)C(=O)NC1CC1 [Example 100, (R)—N^1-cyclopropyl-N2-(5-(2-(2,5-difluorophenyl)pyrrolidin-1-yl)pyrazolo[1,5-a]pyrimidin-3-yl)oxalamide]	15.8 nM
CC(C)N1CCN(C(=O)Nc2cnn3ccc(N4CCC[C@@H]4c4cc(F)ccc4F)nc23)CC1 [Example 26, (R)—N-(5-(2-(2,5-difluorophenyl)pyrrolidin-1-yl)pyrazolo[1,5-a]pyrimidin-3-yl)-4-isopropylpiperazine-1-carboxamide]	45 nM
O=C(Nc1cnn2ccc(N3CCC[C@@H]3c3cc(F)ccc3C(F)F)nc12)N1CC[C@@H](O)C1 [Example 36, (R)—N-(5-((R)-2-(2-(difluoromethyl)-5-fluorophenyl)pyrrolidin-1-yl)pyrazolo[1,5-a]pyrimidin-3-yl)-3-hydroxypyrrolidine-1-carboxamide]	18 nM
Cn1ccc(C(=O)Nc2cnn3ccc(N4CCC[C@@H]4c4cccc(F)c4)nc23)cc1=O [Example 70, (R)—N-(5-(2-(3-fluorophenyl)pyrrolidin-1-yl)pyrazolo[1,5-a]pyrimidin-3-yl)-1-methyl-2-oxo-1,2-dihydropyridine-4-carboxamide]	55.6 nM
O=C(Nc1cnn2ccc(N3CCC[C@@H]3c3cc(F)ccc3F)nc12)C1CC(O)C1 (stereo partly drawn) [Example 96, (R)—N-(5-(2-(2,5-difluorophenyl)pyrrolidin-1-yl)pyrazolo[1,5-a]pyrimidin-3-yl)-3-hydroxycyclobutanecarboxamide]	27.4 nM
CCN1CCN(C(=O)Nc2cnn3ccc(N4CCC[C@@H]4c4cc(F)ccc4F)nc23)CC1 [Example 27, (R)—N-(5-(2-(2,5-difluorophenyl)pyrrolidin-1-yl)pyrazolo[1,5-a]pyrimidin-3-yl)-4-ethylpiperazine-1-carboxamide]	107 nM
CNC(C)(C)C(=O)Nc1cnn2ccc(N3CCC[C@@H]3c3cc(F)ccc3F)nc12 [Example 66, (R)—N-(5-(2-(2,5-difluorophenyl)pyrrolidin-1-yl)pyrazolo[1,5-a]pyrimidin-3-yl)-2-methyl-2-(methylamino)propanamide]	52.5 nM
O=C(O)C1(C(=O)Nc2cnn3ccc(N4CCC[C@@H]4c4cc(F)ccc4F)nc23)CC1 [Example 34, (R)-1-(5-(2-(2,5-difluorophenyl)pyrrolidin-1-yl)pyrazolo[1,5-a]pyrimidin-3-ylcarbamoyl)cyclopropanecarboxylic acid]	98.2 nM
O=C(Nc1cnn2ccc(N3CCC[C@@H]3c3cccc(F)c3)nc12)c1ccncc1 [Example 77, (R)—N-(5-(2-(3-fluorophenyl)pyrrolidin-1-yl)pyrazolo[1,5-a]pyrimidin-3-yl)isonicotinamide]	71.8 nM
O=C(Nc1cnn2ccc(N3CCC[C@@H]3c3cccc(F)c3)nc12)N1CCOCC1 [Example 9, (R)—N-(5-(2-(3-fluorophenyl)pyrrolidin-1-yl)pyrazolo[1,5-a]pyrimidin-3-yl)morpholine-4-carboxamide]	821 nM

Stronger by IC50, values ahead:

IC50	Compound
4.1 nM	O=C(Nc1cnn2ccc(N3CCC[C@@H]3c3cc(F)ccc3Cl)nc12)N1CC[C@@H](O)C1 [Example 41, (R)—N-(5-((R)-2-(2-chloro-5-fluorophenyl)pyrrolidin-1-yl)pyrazolo[1,5-a]pyrimidin-3-yl)-3-hydroxypyrrolidine-1-carboxamide]
6.6 nM	Cc1cnc(C(=O)Nc2cnn3ccc(N4CCC[C@@H]4c4cccc(F)c4)nc23)cn1 [Example 82, (R)—N-(5-(2-(3-fluorophenyl)pyrrolidin-1-yl)pyrazolo[1,5-a]pyrimidin-3-yl)-5-methylpyrazine-2-carboxamide]
4 nM	O=C(Nc1cnn2ccc(N3CCC[C@@H]3c3cc(F)ccc3F)nc12)c1cc(Cl)ccn1 [Example 62, (R)-4-chloro-N-(5-(2-(2,5-difluorophenyl)pyrrolidin-1-yl)pyrazolo[1,5-a]pyrimidin-3-yl)picolinamide]
13.4 nM	O=C(Nc1cnn2ccc(N3CCC[C@@H]3c3cc(F)ccc3Cl)nc12)N1CCC[C@H](O)C1 [Example 44, (S)—N-(5-((R)-2-(2-chloro-5-fluorophenyl)pyrrolidin-1-yl)pyrazolo[1,5-a]pyrimidin-3-yl)-3-hydroxypiperidine-1-carboxamide]
12.4 nM	CC(C)(O)C(=O)Nc1cnn2ccc(N3CCC[C@@H]3c3cc(F)ccc3F)nc12 [Example 50, (R)—N-(5-(2-(2,5-difluorophenyl)pyrrolidin-1-yl)pyrazolo[1,5-a]pyrimidin-3-yl)-2-hydroxy-2-methylpropanamide]
4.8 nM	COc1ccc(NC(=O)Nc2cnn3ccc(N4CCC[C@@H]4c4cc(F)ccc4F)nc23)cc1 [Example 20, (R)-1-(5-(2-(2,5-difluorophenyl)pyrrolidin-1-yl)pyrazolo[1,5-a]pyrimidin-3-yl)-3-(4-methoxyphenyl)urea]
13.7 nM	O=C(Nc1cnn2ccc(N3CCC[C@@H]3c3cc(F)ccc3Cl)nc12)N1CC(O)C1 [Example 8, (R)—N-(5-(2-(2-chloro-5-fluorophenyl)pyrrolidin-1-yl)pyrazolo[1,5-a]pyrimidin-3-yl)-3-hydroxyazetidine-1-carboxamide]
11.7 nM	O=C(Nc1cnn2ccc(N3CCC[C@@H]3c3cc(F)ccc3Cl)nc12)N1CCC[C@@H](O)C1 [Example 43, (R)—N-(5-((R)-2-(2-chloro-5-fluorophenyl)pyrrolidin-1-yl)pyrazolo[1,5-a]pyrimidin-3-yl)-3-hydroxypiperidine-1-carboxamide]
10.1 nM	O=C(Nc1cnn2ccc(N3CCC[C@@H]3c3cc(F)ccc3F)nc12)C(=O)N1CC(O)C1 [Example 101, (R)—N-(5-(2-(2,5-difluorophenyl)pyrrolidin-1-yl)pyrazolo[1,5-a]pyrimidin-3-yl)-2-(3-hydroxyazetidin-1-yl)-2-oxo acetamide]
12.8 nM	O=C(Nc1cnn2ccc(N3CCC[C@@H]3c3cc(F)ccc3F)nc12)C(=O)N1CC[C@H](O)C1 [Example 102, N-(5-((R)-2-(2,5-difluorophenyl)pyrrolidin-1-yl)pyrazolo[1,5-a]pyrimidin-3-yl)-2-((S)-3-hydroxypyrrolidin-1-yl)-2-oxoacetamide]
13.3 nM	O=C(Nc1cnn2ccc(N3CCC[C@@H]3c3cc(F)ccc3F)nc12)N1C[C@@H](O)[C@H](O)C1 [Example 15, (3R,4R)—N-(5-((R)-2-(2,5-difluorophenyl)pyrrolidin-1-yl)pyrazolo[1,5-a]pyrimidin-3-yl)-3,4-dihydroxypyrrolidine-1-carboxamide]
14.2 nM	CC(C)(F)C(=O)Nc1cnn2ccc(N3CCC[C@@H]3c3cc(F)ccc3F)nc12 [Example 54, (R)—N-(5-(2-(2,5-difluorophenyl)pyrrolidin-1-yl)pyrazolo[1,5-a]pyrimidin-3-yl)-2-fluoro-2-methylpropanamide]
